Experimental data taken from patent US10557115B2, “Medium containing uridine and N-acetyl-D-mannosamine” (JCR Pharmaceuticals Co., Ltd., priority 2015, dated 2020).

Tests used:
[1] = tested on: CHO cells for expression of recombinant human FSH; experiment: Sialic acid content (HPLC peak area) of recombinant human FSH from cells cultured in supplemented medium; format: cell-based, Chinese hamster; settings: for relative value of sialic acid peak area of recombinant human FSH (basic medium = 100%): basic medium added with 8 mM N-acetyl-D-mannosamine and/or 3 mM uridine, 5 days at 37° C., FIG. 9
Description: (§1) The above master cells stored in liquid nitrogen were quickly thawed in 37° C. thermostatic bath, and suspended in a basic medium, the CD Opti CHO™ medium (Life Technologies Inc.) supplemented with 2 mM of GlutaMAX (Life Technologies Inc.) and 1×HT Supplement (Life Technologies Inc.). Then, the cells were precipitated by centrifugation and corrected. The corrected cells were suspended with the basic medium to obtain cell suspension, and the number of the living cells was counted. The cell suspension was diluted to the living cell density of 2×10^5 cells/mL with the basic medium.
The cell suspension was dispensed into culture vessels by 120 mL each to generate four groups and incubated for five days at 37° C. under 5% CO2. This incubation was conducted by using Bio Jr. 8 (100 mL×8 vessels culture device, AbleBiott Inc.), and pH of the medium was kept at 6.9 and the dissolved oxygen level (DO) was kept at 40% during the incubation. […]
50 μL of the concentrated solution of the purified recombinant human FSH of each of the groups was alkali-treated with 0.3M sodium hydroxide at 37° C. for 30 minutes, subsequently was acid-treated with 0.05M hydrochloric acid at 80° C. for 60 minutes to make glycans composing recombinant human FSH hydrolyzed to monosaccharides. Then, the solution were added with fluorescence reagent (a solution containing 9.6 mM of 1,2-diamino-4,5-methylene-dioxybenzene dihydrochloride, 24 mM of sodium hydrosulfite, and 1M of 2-mercaptoethanol), and heated at 50° C. for 150 minutes to fluorescently label the monosaccharides obtained by the hydrolysis. […] As a standard, sialic acid was concurrently treated with the same manner, and the standard of fluorescence-labeled sialic acid was obtained. The standard thus obtained was analyzed by HPLC using COSMOSIL 5C18-PAQ as reverse phase column, and the elution time of sialic acid, the time when the peak corresponding to sialic acid appeared, was measured. And each of the sample solutions was analyzed by HPLC and the area of peak corresponding to sialic acid was calculated. […]

[2] = tested on: CHO cells for expression of recombinant human erythropoietin; experiment: Capillary electrophoresis isoform analysis of recombinant human erythropoietin from cells cultured in supplemented medium; format: cell-based, Chinese hamster; settings: basic medium added with 8 mM N-acetyl-D-mannosamine and/or 3 mM uridine, 5 days at 37° C., FIG. 3; for ratio of type I isoform to sum of all detected isoforms of recombinant human erythropoietin: type I = lowest isoelectric point
Description: as §1, with “obtain the” for “obtain”
The cell suspension was dispensed into culture vessels by 120 mL each to generate four groups and incubated for five days at 37° C. under 5% CO2. This incubation was conducted by using Bio Jr.8 (100 mL×8 vessels culture device, AbleBiott Inc.), and pH of the medium was kept at 6.9 and the dissolved oxygen level (DO) was kept at 40% during the incubation. At this time, uridine and N-acetyl-D-mannosamine were added at the concentration as shown in Table 1 to each of the groups (group 1 to group 4). The incubation was conducted four times for each of the groups.
On the fifth day of the incubation above, 10 mL of each of the cultures was corrected to centrifuging tubes and centrifuged at 3,000 rpm for 10 minutes. Then, the culture supernatants were corrected and diluted 1.5 times with purified water. Then, 7.5 mL of each of these diluted culture supernatants was loaded on Capto™ adhere column, a multi-modal anion exchange resin (column volume: 1 mL, GE Healthcare Bioscience Inc.) pre-equilibrated with 20 mM Tris buffer (pH 7.5). After washing the column with 5 column volumes of 20 mM Tris buffer (pH 7.5), recombinant human erythropoietin adsorbed by the resin was eluted with 20 mM Tris buffer (pH 7.5) containing 200 mM of NaCl to obtain eluted fractions. And the eluted fractions were concentrated by Amicon Ultra-4 Centrifugal Filter Units (molecular weight cut off: 3 kDa, Millipore Inc.) to 100 μL of volume.
The concentrated solution of each of the groups was subjected capillary electrophoresis by using Bare Fused-Silica Capillary (50 μm ID, 375 μm OD, 50 cm length, Beckmann Coulter Inc.) attached to capillary electrophoresis system (P/ACE™ system MDQ, Beckmann Coulter Inc.). In doing this, 10 mM Tris buffer (pH 4.5) containing 10 mM of sodium chloride, 500 mM of sodium acetate, 7 M of urea, and 2.5 mM of putrescine was used as an electrophoresis buffer, and the electrophoresis was performed at constant current of 24 μA for 50 minutes. Further the wave length at 214 nm was monitored by an UV detector to detect the recombinant human erythropoietin subjected to the electrophoresis.
The isoform showing the lowest isoelectric point among the isoforms showing different isoelectric points when detected by the capillary electrophoresis above was named as type I, and further the isoforms were named as type II and type III in ascending order of isoelectric point. The ratios of type I, type II, and type III to sum of all of detected isoforms were calculated, respectively. And the ratios were compared between the groups. The ratios of type I, type II, and type III in the recombinant human erythropoietin of the group 1 obtained by culturing the cells in the basic medium were about 0.7%, about 5%, and about 15%, respectively (FIG. 3).

SMILES | relative value of sialic acid peak area of recombinant human FSH (basic medium = 100%) [1] | ratio of type II isoform to sum of all detected isoforms of recombinant human erythropoietin [2] | ratio of type III isoform to sum of all detected isoforms of recombinant human erythropoietin [2] | ratio of type I isoform to sum of all detected isoforms of recombinant human erythropoietin [2] | increase of average number of sialic acid molecules per molecule of recombinant human FSH versus basic medium ([1]; basic medium added with 3 mM uridine, or with 8 mM N-acetyl-D-mannosamine and 3 mM uridine)
CC(=O)N[C@@H]1C(O)O[C@H](CO)[C@@H](O)[C@@H]1O (stereo partly drawn) [N-acetyl-D-mannosamine] | about 100% | about 7% | about 20.7% | about 1.2% | 
O=c1ccn([C@@H]2O[C@H](CO)[C@@H](O)[C@H]2O)c(=O)[nH]1 [uridine] | about 112% | about 3.5% | about 13% | about 0.3% | about 10%
